Assays:
DAAO [1] = biological target: T1, DAAO (Mus musculus, UniProt P18894); test: Plasma D-serine after oral administration of D-serine ± DAAO inhibitors, determined by SPE/DAAO; format: in vivo; settings: CD1 mice; for plasma D-serine curve / exposure to D-serine on co-administration: D-serine 326 μmole/kg po plus inhibitor po (CBIO 180, TPC 160 μmoles/kg)
T1 construct: CD1 mice (6-8 wk old, Sprague Dawley, Harlan) were dosed orally with D-serine (30 mg/kg)±compounds; from tissue; host or cells: living CD1 mice (whole animal; DAAO of liver, kidney, brain)
T1 sequence (P18894 whole entry): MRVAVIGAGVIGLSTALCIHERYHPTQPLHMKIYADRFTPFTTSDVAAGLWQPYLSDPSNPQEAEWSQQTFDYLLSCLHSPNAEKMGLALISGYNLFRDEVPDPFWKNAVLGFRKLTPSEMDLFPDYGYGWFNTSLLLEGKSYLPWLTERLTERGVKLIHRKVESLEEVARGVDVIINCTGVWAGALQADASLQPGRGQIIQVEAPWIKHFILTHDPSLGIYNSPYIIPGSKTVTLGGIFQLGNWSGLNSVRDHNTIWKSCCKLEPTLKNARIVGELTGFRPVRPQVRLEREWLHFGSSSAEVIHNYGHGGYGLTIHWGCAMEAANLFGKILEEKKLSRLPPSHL
Protocol: Plasma was collected at 0.5, 1, 2, 3, and 6 hours after dosage. D-serine was extracted from plasma by SPE and its levels determined by the DAAO reaction. FIG. 2(A) depicts D-serine alone, FIG. 2(B) depicts CBIO alone, D-serine±CBIO and FIG. 2(C) depicts D-serine±TPC. […] Each data point is the average of data from 3 separate mice; error bars correspond to ±S.E.M. D-serine standard curves were constructed for each experiment.
Animals—CD1 mice (6-8 wk old, Sprague Dawley, Harlan) were dosed orally with D-serine (30 mg/kg)±compounds. Animals were sacrificed 0.5, 1, 2, 3 and 6 h after dosing and blood was collected by cardiac puncture bleeds. Plasma was prepared and frozen at −80° C. until use.
(§1) Cation Exchange SPE—D-serine was added to normal mouse plasma at different concentrations to generate a standard curve. Plasma (50 μL) containing D-serine or plasma from D-serine treated animals was diluted in 200 μL 0.03 N HCl (pH 1.5). […] Acidified samples were then added to a cation exchange resin (BioRad AG 50W-X4, 200 μL resin equilibrated with 0.03 N HCl) in deep well spin plates (Harvard Apparatus). Minicolumns were centrifuged for 2 min at 200×g. The resin was washed twice with 250 μL 0.03 N HCl and 3 times with 250 μL 100 mM Tris, pH 8.5. D-serine was eluted with 2 times 250 μL 100 mM Tris, pH 13.
D-serine Measurement—An aliquot (50 μL) of the D-serine eluant from the cation exchange SPE was used as the source of D-serine in the DAAO catalyzed reaction. […] Briefly, the reaction is carried out in Tris buffer (pH 8.5, 100 mM) in the presence of flavin adenine dinucleotide (10 μM). The peroxide formed from the oxidation of D-serine in the presence of porcine DAAO (34 units/mg, Sigma) was made to react with horse radish peroxidase (0.01 mg/ml, Sigma) in the presence of Amplex Red (50 μM, Invitrogen) to make resorufin. Fluorescence of resorufin (ex/em 530/590) was monitored in a SpectraMax Gemini XS fluorimeter for 1 h at 5 min intervals. D-serine concentrations were determined by interpolation from the standard curve of fluorescence vs. D-serine concentration. […]

[2] = test system: prepulse inhibition deficits; settings: co-administration with D-serine, ddy mice; similar to 10-fold higher doses of D-serine alone; cited from earlier work
porcine DAAO = biological target: T2, porcine DAAO (Sus scrofa, UniProt P00371); test: DAAO enzyme coupled assay (Amplex Red/HRP, resorufin fluorescence); format: biochemical; settings: control experiment, CBIO not removed by SPE; data not shown
T2 construct: purchased Sigma
T2 sequence (P00371 whole entry): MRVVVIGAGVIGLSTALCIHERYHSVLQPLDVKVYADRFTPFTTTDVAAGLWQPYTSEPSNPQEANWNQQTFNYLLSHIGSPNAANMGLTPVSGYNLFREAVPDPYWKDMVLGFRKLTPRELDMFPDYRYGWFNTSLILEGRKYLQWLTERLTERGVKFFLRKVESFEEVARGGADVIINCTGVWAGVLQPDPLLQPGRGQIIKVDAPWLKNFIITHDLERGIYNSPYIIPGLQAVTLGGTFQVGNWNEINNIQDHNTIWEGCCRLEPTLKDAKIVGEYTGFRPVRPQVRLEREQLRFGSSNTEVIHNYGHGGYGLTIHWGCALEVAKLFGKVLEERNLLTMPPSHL
Protocol: D-serine Measurement—An aliquot (50 μL) of the D-serine eluant from the cation exchange SPE was used as the source of D-serine in the DAAO catalyzed reaction. The DAAO assay is an enzyme coupled assay that was adapted from a procedure that has been reported previously (P. E. Brandish, et al. J Biomol Screen 11 (2006) 481-87). Briefly, the reaction is carried out in Tris buffer (pH 8.5, 100 mM) in the presence of flavin adenine dinucleotide (10 μM). The peroxide formed from the oxidation of D-serine in the presence of porcine DAAO (34 units/mg, Sigma) was made to react with horse radish peroxidase (0.01 mg/ml, Sigma) in the presence of Amplex Red (50 μM, Invitrogen) to make resorufin. Fluorescence of resorufin (ex/em 530/590) was monitored in a SpectraMax Gemini XS fluorimeter for 1 h at 5 min intervals. D-serine concentrations were determined by interpolation from the standard curve of fluorescence vs. D-serine concentration.
The eluant containing D-serine was then used as substrate in the DAAO catalyzed reaction. […] The levels of several D-amino acids in mouse serum have been reported previously and they range from not detectable to 6 μM (A. Hashimoto, et al. Neurosci Lett 152 (1993) 33-36); these concentrations would give a low fluorescence background. […] In any case, background fluorescence was determined from control animals every time an experiment was carried out. […]

DAAO [3] = biological target: T3, DAAO (Rattus norvegicus, UniProt O35078); settings: oral co-administration with D-serine, rats; cited from earlier work
T3 construct: host or cells: living rats (whole animal)
T3 sequence (O35078 whole entry): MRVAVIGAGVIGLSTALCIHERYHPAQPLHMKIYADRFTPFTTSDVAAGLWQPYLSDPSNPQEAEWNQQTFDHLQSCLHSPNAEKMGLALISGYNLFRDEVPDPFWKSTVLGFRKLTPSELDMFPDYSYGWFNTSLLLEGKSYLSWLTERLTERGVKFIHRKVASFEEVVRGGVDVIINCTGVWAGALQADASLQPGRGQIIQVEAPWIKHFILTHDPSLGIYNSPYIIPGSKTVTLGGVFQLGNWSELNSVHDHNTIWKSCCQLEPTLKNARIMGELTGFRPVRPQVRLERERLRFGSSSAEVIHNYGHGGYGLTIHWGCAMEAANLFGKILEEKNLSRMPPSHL

[4] = test system: N-methyl-D-aspartate (NMDA) receptor; settings: multiple clinical studies; high doses (2 g per day po); cited from earlier work
[5] = Plasma D-serine time profile after oral D-serine, determined by SPE/DAAO; format: in vivo, CD1 mice; settings: D-serine 326 μmoles/kg po
Protocol: […] Animals were sacrificed 0.5, 1, 2, 3 and 6 h after dosing and blood was collected by cardiac puncture bleeds. Plasma was prepared and frozen at −80° C. until use.
as §1
D-serine Measurement—An aliquot (50 μL) of the D-serine eluant from the cation exchange SPE was used as the source of D-serine in the DAAO catalyzed reaction. The DAAO assay is an enzyme coupled assay that was adapted from a procedure that has been reported previously (P. E. Brandish, et al. J Biomol Screen 11 (2006) 481-87). […] Fluorescence of resorufin (ex/em 530/590) was monitored in a SpectraMax Gemini XS fluorimeter for 1 h at 5 min intervals. D-serine concentrations were determined by interpolation from the standard curve of fluorescence vs. D-serine concentration. […]

[6] = cited from earlier work

plasma D-serine levels when inhibitor administered in the absence of D-serine (DAAO [1]; CBIO alone)	oxidation of D-serine by DAAO (porcine DAAO)	time point showing the highest D-serine plasma concentration ([5]; first time point, Tmax likely earlier)	half-life ([5]; mouse, CD1 mice, plasma, read-out: estimated half-life of D-serine in mouse plasma)	Compound	plasma D-serine curve / exposure to D-serine on co-administration (DAAO [1])	prepulse inhibition deficits [2]	brain levels of D-serine compared to D-serine alone (DAAO [3])	plasma levels of D-serine compared to D-serine alone (DAAO [3])	treating the positive, negative and cognitive deficits of schizophrenia [4]	pKa of the carboxylic acid [6]
				O=C(O)c1cc2sccc2[nH]1 [TPC, 4H-thieno[3,2-b]pyrrole-5-carboxylic acid]	shifted the exposure of D-serine in plasma					
the same as background levels	completely inhibited			Oc1noc2ccc(Cl)cc12 [CBIO, 5-chloro-benzo[d]isoxazol-3-ol]	overall curve was shifted to the right	normalized	significantly enhanced	significantly enhanced		
		0.5 h	~50 min	N[C@H](CO)C(=O)O [D-serine]					effective	2.1

— patent publication US8778688B2, “High-throughput methods for determining pharmacological levels of plasma D-serine” (The Johns Hopkins University, priority 2011, dated 2014)
